Results as given in PubChem BioAssay (NCI).
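Exposure lasted 48 hours, with cells grown in 96-well plates and compounds tested at five concentrations. GI50 marks 50% less growth. TGI: total growth inhibition.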

Assays:
Experiment in all cases: NCI anticancer screen, dose series, 48 h
MDA-MB-435 = test system: MDA-MB-435
OVCAR-4 ovarian = test system: OVCAR-4 ovarian
HCT-15 colon = test system: HCT-15 colon
IGROV1 ovarian = test system: IGROV1 ovarian
SN12C renal = test system: SN12C renal
LOX IMVI melanoma = test system: LOX IMVI melanoma
CAKI-1 renal = test system: CAKI-1 renal
HL-60(TB) leukemia = test system: HL-60(TB) leukemia
HS 578T breast = test system: HS 578T breast
UACC-62 melanoma = test system: UACC-62 melanoma

Row | SMILES | GI50 (MDA-MB-435) [µM] | TGI (MDA-MB-435) [µM] | GI50 (OVCAR-4 ovarian) [µM] | TGI (OVCAR-4 ovarian) [µM] | GI50 (HCT-15 colon) [µM] | TGI (HCT-15 colon) [µM] | GI50 (IGROV1 ovarian) [µM] | TGI (IGROV1 ovarian) [µM] | GI50 (SN12C renal) [µM] | TGI (SN12C renal) [µM] | GI50 (LOX IMVI melanoma) [µM] | TGI (LOX IMVI melanoma) [µM] | GI50 (CAKI-1 renal) [µM] | TGI (CAKI-1 renal) [µM] | GI50 (HL-60(TB) leukemia) [µM] | TGI (HL-60(TB) leukemia) [µM] | GI50 (HS 578T breast) [µM] | TGI (HS 578T breast) [µM] | GI50 (UACC-62 melanoma) [µM] | TGI (UACC-62 melanoma) [µM]
1 | O=C1C(OCCOc2ccccc2)=C(OCCOc2ccccc2)C(=O)c2ccccc21 | 35.4 | > 100 | 7.1 | > 100 | 3.14 | > 100 | > 100 | > 100 | 4.38 | 52 | 3.75 | > 100 | 12.5 | > 100 | > 100 | > 100 | 8.96 | > 100 | 6.79 | > 100
2 | O=c1c2cc(F)ccc2sc2c(NCCCNCCO)nc3ccccc3c12 | 1.79 | 3.4 | 1.92 | 4.05 | 1.63 | 3.12 | 1.43 | 2.9 | 1.67 | 3.17 | 1.68 | 3.17 | 1.61 | 2.97 | 2 | 4.02 | 1.7 | 3.74 | 1.73 | 3.23
3 | C[C@@H]1O[C@@H](O[C@@H]2[C@@H](O)[C@H](OCCc3ccc(O)c(O)c3)O[C@H](CO)[C@H]2OC(=O)/C=C/c2ccc(O)c(O)c2)[C@H](O)[C@H](OC2OC[C@](O)(CO)[C@H]2O)[C@H]1O (stereo partly drawn) | 17.5 | 34.6 | > 100 | > 100 | > 100 | > 100 | > 100 | > 100 | > 100 | > 100 | 19.4 | 37 | 24.8 | 42.5 | > 100 | > 100 | > 100 | > 100 | > 100 | > 100
4 | C[n+]1c2ccccc2nc2c(N)cc(N)cc21 | 15.9 | 41.5 | 5.87 | > 100 | 57.6 | > 100 | 14.4 | 57 | 2.55 | 14 | 18 | 94 | 0.519 | 19 | 6.39 | 35.8 | 3.63 | 20.6 | 12.9 | 31.7
5 | COc1ccc2c(c1)C(=O)c1c-2c(OCCN(C)C)nc2ccccc12 | 2.58 | 10.1 | 3.03 | 10.8 | 2.02 | 11.3 | 2.97 | 14.8 | 1.69 | 10.6 | 1.54 | 4.91 | 1.47 | 4.14 | 3.19 | 15.4 | 3.57 | 12.2 | 3.9 | 15.7
6 | O=C(O)c1ccccc1NC(=S)c1ccccc1 |  | > 100 |  | 29 |  | > 100 |  | 98.9 |  | > 100 |  | > 100 |  | > 100 |  | 98.3 |  | > 100 |  | > 100
7 | COc1cccc(Oc2ccccc2NC(=O)CNC(=O)c2cccc3ccccc23)c1 | 0.0711 | 0.256 | 0.77 | > 25 | 0.129 | > 25 | 1.04 | > 25 | 1.44 | > 25 | 0.267 | > 25 | 0.917 | > 25 | 0.081 | 0.237 | 0.381 | > 25 | 0.209 | > 25
8 | N#CCCNc1nonc1-c1nc2ccccc2n1CC(=O)c1ccc(NC(=O)[C@@H](N)CCCCN)cc1 |  | 0.0742 | 0.0436 | > 100 | 0.0356 | > 100 | 0.11 | > 100 | 0.0498 | > 100 | 0.0513 | > 100 | 0.061 | > 100 | 0.0317 |  | 0.908 | > 100 | 0.0213 | > 100
